Data taken from the NIST ThermoML archive (doi:10.1016/j.jct.2013.05.022).
Numbers after ± are expanded uncertainties.

Assay: Boiling temperature at pressure P
Details: Liquid, Ebulliometric method (Recirculating still)

Boiling temperature at pressure P (13.33 kPa)	Boiling temperature at pressure P (20 kPa)	Boiling temperature at pressure P (26.66 kPa)	Boiling temperature at pressure P (33.33 kPa)	Boiling temperature at pressure P (40 kPa)	Boiling temperature at pressure P (53.33 kPa)	Boiling temperature at pressure P (66.66 kPa)	Boiling temperature at pressure P (79.99 kPa)	Boiling temperature at pressure P (93.33 kPa)	Boiling temperature at pressure P (98.12 kPa)	Boiling temperature at pressure P (101.33 kPa)	SMILES
133.2 ± 0.9 °C	143.7 ± 0.9 °C	152.1 ± 0.9 °C	159 ± 0.8 °C	164.7 ± 0.8 °C	174.1 ± 0.8 °C	182 ± 0.8 °C	188.5 ± 0.8 °C	–	–	–	C=CC(C)(O)CCC=C(C)C (centres undefined) [3,7-dimethyl-1,6-octadien-3-ol]
35.7 ± 0.9 °C	43.1 ± 0.8 °C	48.5 ± 0.8 °C	53 ± 0.8 °C	57 ± 0.8 °C	63.1 ± 0.8 °C	68.2 ± 0.8 °C	72.5 ± 0.8 °C	76.2 ± 0.8 °C	77.7 ± 0.8 °C	78.2 ± 0.8 °C	CCO [ethanol]
